From patent US9999656B2, “Treatment of short bowel syndrome patients with colon-in-continuity” (Shire-NPS Pharmaceuticals, Inc., priority 2004, dated 2018)

System: patients with short bowel syndrome (SBS)
Assay: 72-hour nutrient balance studies in open-label pilot study of teduglutide
Format: in vivo, human
Conditions: for Energy Absorption (% of intake), Effect of Treatment (Treatment minus Baseline) mean ± SD / Energy Absorption, Effect of Treatment (Treatment minus Baseline) mean ± SD / Energy Fecal, Effect of Treatment (Treatment minus Baseline) mean ± SD / Urine Wet Weight, Effect of Treatment (Treatment minus Baseline) mean ± SD / Wet Weight Absorption (% of intake), Effect of Treatment (Treatment minus Baseline) mean ± SD / Wet Weight Absorption, Effect of Treatment (Treatment minus Baseline) mean ± SD / Wet Weight Fecal, Effect of Treatment (Treatment minus Baseline) mean ± SD: Days 18-21 vs baseline; for Energy Absorption (% of intake), Effect at Follow up (Follow up minus Baseline) mean ± SD / Energy Absorption, Effect at Follow up (Follow up minus Baseline) mean ± SD / Energy Fecal, Effect at Follow up (Follow up minus Baseline) mean ± SD / Urine Wet Weight, Effect at Follow up (Follow up minus Baseline) mean ± SD / Wet Weight Absorption (% of intake), Effect at Follow up (Follow up minus Baseline) mean ± SD / Wet Weight Absorption, Effect at Follow up (Follow up minus Baseline) mean ± SD / Wet Weight Fecal, Effect at Follow up (Follow up minus Baseline) mean ± SD: follow-up Days 39-42 vs baseline; for decrease in fecal energy excretion compared to baseline: stated as reduction
Procedure: This was an open-label, pilot study to determine the safety and effect of teduglutide in patients with short bowel syndrome (SBS). The patient's history was reviewed and a physical examination performed to determine eligibility before inclusion in the study. Estimated residual small intestine and colon lengths were determined by reviewing operative reports and available radiographic studies. Eligible patients were admitted as inpatients to hospital wards or General Clinic Research Centers (GCRC) on three separate occasions, 18 days apart, for the last four days and three nights of the baseline period and at the end of the treatment and follow-up periods. Treatment consisted of recombinant teduglutide (supplied by NPS Allelix, Mississauga, ON, Canada) formulated as a lyophilized powder with L-histidine, mannitol, and monobasic and dibasic sodium phosphate (Lot 8502901). Water was added to reconstitute the drug for administration by subcutaneous (s.c.) injections in the abdomen or thigh. Ten SBS patients with jejunostomy received 0.03 mg/kg/d, 0.10 mg/kg/d or 0.15 mg/kg/d once daily for 21 days. Five SBS patients with ≥50% colon-in-continuity received teduglutide 0.10 mg/kg/d once daily for 21 days.
The 72-hour nutrient balance studies were completed with each patient eating their usual diet, calculated from a seven-day food diary completed by the patient during the screening period. It was intended that patients eat the same quantity and quality of food and beverages during each admission. During the 72-hour balance periods, all oral intake (duplicate meals and beverages and declined food), fecal/stomal output, and urine were collected and weighed. All stool samples were refrigerated during the collection period. Stools and diets were separately homogenized and analyzed for energy content (by bomb calorimetry), nitrogen (by the macro-Kjeldahl's method), fat (by the gravimetric technique), and sodium and potassium (by atomic absorption).
Using the SAS (Version 8.2; SAS Institute, Cary, N.C.) statistical program, a Student's paired t test was employed that compared treatment to baseline values, and follow-up to baseline values. No comparisons were made between patients on different doses or with different anatomy due to the limited number of patients in the study. Data are expressed as mean±SD. A value of p<0.05 was considered significant.

[1] = Group 2 SBS end-jejunostomy, N=10, 0.03-0.15 mg/kg/d s.c. once daily 21 days
[2] = Group 2 SBS end-jejunostomy, N=10
[3] = Group 2 SBS end-jejunostomy, of N=10
[4] = Group 3 SBS ≥50% colon-in-continuity, N=5, 0.10 mg/kg/d s.c. once daily 21 days
[5] = Group 3 SBS ≥50% colon-in-continuity, N=5
[6] = Group 3 SBS ≥50% colon-in-continuity, of N=5

## CC[C@H](C)[C@H](NC(=O)[C@H](Cc1ccccc1)NC(=O)[C@H](CC(=O)O)NC(=O)[C@H](CCCNC(=N)N)NC(=O)[C@H](C)NC(=O)[C@H](C)NC(=O)[C@H](CC(C)C)NC(=O)[C@H](CC(N)=O)NC(=O)[C@H](CC(=O)O)NC(=O)[C@H](CC(C)C)NC(=O)[C@@H](NC(=O)[C@@H](NC(=O)[C@H](CC(N)=O)NC(=O)[C@H](CCSC)NC(=O)[C@H](CCC(=O)O)NC(=O)[C@H](CC(=O)O)NC(=O)[C@H](CO)NC(=O)[C@H](Cc1ccccc1)NC(=O)[C@H](CO)NC(=O)CNC(=O)[C@H](CC(=O)O)NC(=O)CNC(=O)[C@@H](N)Cc1c[nH]cn1)[C@@H](C)O)[C@@H](C)CC)C(=O)N[C@@H](CC(N)=O)C(=O)N[C@@H](Cc1c[nH]c2ccccc12)C(=O)N[C@@H](CC(C)C)C(=O)N[C@H](C(=O)N[C@@H](CCC(N)=O)C(=O)N[C@H](C(=O)N[C@@H](CCCCN)C(=O)N[C@H](C(=O)N[C@H](C(=O)N[C@@H](CC(=O)O)C(=O)O)[C@@H](C)O)[C@@H](C)CC)[C@@H](C)O)[C@@H](C)CC [teduglutide, [Gly2]hGLP-2]
[1]
  Energy Absorption (% of intake), Effect of Treatment (Treatment minus Baseline) mean ± SD: 5 ± 20 % of intake
  Energy Absorption, Effect of Treatment (Treatment minus Baseline) mean ± SD: 363 ± 2656 kJ/day
  Energy Fecal, Effect of Treatment (Treatment minus Baseline) mean ± SD: -532 ± 1703 kJ/day
  Urine Wet Weight, Effect of Treatment (Treatment minus Baseline) mean ± SD: 680 ± 535 g/day
  Wet Weight Absorption (% of intake), Effect of Treatment (Treatment minus Baseline) mean ± SD: 20±18 % of intake
  Wet Weight Absorption, Effect of Treatment (Treatment minus Baseline) mean ± SD: 788 ± 551 g/day
  Wet Weight Fecal, Effect of Treatment (Treatment minus Baseline) mean ± SD: -682 ± 911 g/day
[2]
  Energy Absorption (% of intake), Effect at Follow up (Follow up minus Baseline) mean ± SD: −6 ± 12 % of intake
  Energy Absorption, Effect at Follow up (Follow up minus Baseline) mean ± SD: -800 ± 2958 kJ/day
  Energy Fecal, Effect at Follow up (Follow up minus Baseline) mean ± SD: 320 ± 1200 kJ/day
  Urine Wet Weight, Effect at Follow up (Follow up minus Baseline) mean ± SD: 11 ± 287 g/day
  Wet Weight Absorption (% of intake), Effect at Follow up (Follow up minus Baseline) mean ± SD: −9 ± 16 % of intake
  Wet Weight Absorption, Effect at Follow up (Follow up minus Baseline) mean ± SD: -218 ± 577 g/day
  Wet Weight Fecal, Effect at Follow up (Follow up minus Baseline) mean ± SD: 278 ± 496 g/day
[3]
  Energy Absorption (% of intake), Patients With Beneficial Effect: 6
  Energy Absorption (kJ/day), Patients With Beneficial Effect: 6
  Energy Fecal, Patients With Beneficial Effect: 8
  Urine Wet Weight, Patients With Beneficial Effect: 8
  Wet Weight Absorption (% of intake), Patients With Beneficial Effect: 8
  Wet Weight Absorption (g/day), Patients With Beneficial Effect: 9
  Wet Weight Fecal, Patients With Beneficial Effect: 8
Group 2 SBS end-jejunostomy, 21-day treatment, stated as decrease
  decrease in fecal wet weight compared to baseline: 682 ± 911 g/day
Group 2 SBS end-jejunostomy, p>0.05
  decrease in fecal energy excretion compared to baseline: 532 ± 1703 kJ/day
Group 3 SBS colon-in-continuity
  decrease in fecal energy excretion compared to baseline: 1343 ± 916 kJ/day
[4]
  Energy Absorption (% of intake), Effect of Treatment (Treatment minus Baseline) mean ± SD: 10±7 % of intake
  Energy Absorption, Effect of Treatment (Treatment minus Baseline) mean ± SD: 1027 ± 798 kJ/day
  Energy Fecal, Effect of Treatment (Treatment minus Baseline) mean ± SD: -1343 ± 916 kJ/day
  Urine Wet Weight, Effect of Treatment (Treatment minus Baseline) mean ± SD: 461 ± 200 g/day
  Wet Weight Absorption (% of intake), Effect of Treatment (Treatment minus Baseline) mean ± SD: 26±16 % of intake
  Wet Weight Absorption, Effect of Treatment (Treatment minus Baseline) mean ± SD: 751 ± 328 g/day
  Wet Weight Fecal, Effect of Treatment (Treatment minus Baseline) mean ± SD: -822 ± 341 g/day
[5]
  Energy Absorption (% of intake), Effect at Follow up (Follow up minus Baseline) mean ± SD: 10 ± 17 % of intake
  Energy Absorption, Effect at Follow up (Follow up minus Baseline) mean ± SD: 907 ± 1146 kJ/day
  Energy Fecal, Effect at Follow up (Follow up minus Baseline) mean ± SD: -997 ± 1713 kJ/day
  Urine Wet Weight, Effect at Follow up (Follow up minus Baseline) mean ± SD: -90 ± 281 g/day
  Wet Weight Absorption (% of intake), Effect at Follow up (Follow up minus Baseline) mean ± SD: 17 ± 30 % of intake
  Wet Weight Absorption, Effect at Follow up (Follow up minus Baseline) mean ± SD: 352 ± 525 g/day
  Wet Weight Fecal, Effect at Follow up (Follow up minus Baseline) mean ± SD: -240 ± 426 g/day
[6]
  Energy Absorption (% of intake), Patients With Beneficial Effect: 5
  Energy Absorption (kJ/day), Patients With Beneficial Effect: 5
  Energy Fecal, Patients With Beneficial Effect: 4
  Urine Wet Weight, Patients With Beneficial Effect: 5
  Wet Weight Absorption (% of intake), Patients With Beneficial Effect: 5
  Wet Weight Absorption (g/day), Patients With Beneficial Effect: 5
  Wet Weight Fecal, Patients With Beneficial Effect: 5
